Results from ChEMBL document CHEMBL1134222, “The identification of a potent, water soluble inhibitor of lipoprotein-associated phospholipase A2” (Bioorg Med Chem Lett, 2001).
pIC50: −log10 of the molar value.

Assays:
[1] = Concentration required for inhibition of human serine dependent Phospholipase A2
Rattus norvegicus [2] = species on record: Rattus norvegicus; assay: Compound was tested for its percent CNS penetration in rat; format: functional, Central nervous system
Homo sapiens = species on record: Homo sapiens; assay: Compound was tested for inhibition of plasma enzyme in whole human plasma at concentration 100 nM; format: functional
Rattus norvegicus [3] = assay: Compound was tested for liver blood flow after intravenous administration in rat; format: functional
[4] = Rapid clearance after intravenous administration in rat was determined; format: ADME, organism-based; settings: blood, read-out: CLb
[5] = system: Platelet-activating factor acetylhydrolase (Rattus norvegicus); assay: Compound was tested for inhibition of Lipoprotein associated phospholipase A2 in rat; settings: concentration not given here

Compound | pIC50 [1] | other results
CCCCCCCCN(C)C(=O)Cn1cc(Cc2cnc(=O)n(CC(=O)N3CCN(C(C)=O)CC3)c2)c(=O)nc1SCc1ccc(F)cc1 | 8.30 | –
CCCCCCCCN(C)C(=O)Cn1cc(Cc2cnc(=O)n(CCO)c2)c(=O)nc1SCc1ccc(F)cc1 | 8.30 | –
CCCCCCCCNC(=O)Cn1cc(Cc2cncnc2)c(=O)nc1SCc1ccc(F)cc1 | 8.15 | –
CCCCCCCCN(C)C(=O)Cn1cc(Cc2cnc(=O)n(CC(=O)O)c2)c(=O)nc1SCc1ccc(F)cc1 | 7.85 | Activity (Rattus norvegicus [2]): 10%
CCCCCCCCCCCCN(C)C(=O)Cn1cc(Cc2cnc(=O)n(C)c2)c(=O)nc1SCc1ccc(F)cc1 | 8.30 | –
CCCCCCCCCCCCN(C)C(=O)Cn1cc(Cc2cnc(=O)n(CC(=O)OCC)c2)c(=O)nc1SCc1ccc(F)cc1 | 8.40 | –
CCCCCCCCN(C)C(=O)Cn1cc(Cc2cnc(=O)n(C)c2)c(=O)nc1SCc1ccc(F)cc1 | 7.57 | –
CCCCCCCCCCCCN(C)C(=O)Cn1cc(Cc2cncnc2)c(=O)nc1SCc1ccc(F)cc1 | – | Activity (Rattus norvegicus [2]): <2%
CCCCCCCCN(C)C(=O)Cn1cc(Cc2cnc(=O)n(CC(=O)N3CCOCC3)c2)c(=O)nc1SCc1ccc(F)cc1 | 8.00 | –
CCCCCCCCN(C)C(=O)Cn1cc(Cc2cnc(=O)n(CC(=O)OCC)c2)c(=O)nc1SCc1ccc(F)cc1 | 7.12 | –
CCCCCCCCN(C)C(=O)Cn1cc(Cc2cnc(=O)n(CC(=O)NCCC)c2)c(=O)nc1SCc1ccc(F)cc1 | 7.96 | –
CCCCCCCCN(C)C(=O)Cn1cc(Cc2cnc(=O)n(CC(=O)NC)c2)c(=O)nc1SCc1ccc(F)cc1 | 8.22 | Activity (Rattus norvegicus [2]): <7%
CCCCCCCCN(C)C(=O)Cn1cc(Cc2cnc(=O)n(CC(=O)N3CCN(C)CC3)c2)c(=O)nc1SCc1ccc(F)cc1 | 8.52 | –
CCCCCCCCN(C)C(=O)Cn1cc(Cc2cnc(=O)n(CC(=O)NCCO)c2)c(=O)nc1SCc1ccc(F)cc1 | 8.10 | –
CCCCCCCCN(C)C(=O)Cn1cc(Cc2cnc(O)nc2)c(=O)nc1SCc1ccc(F)cc1 | 8.40 | Activity (Rattus norvegicus [2]): 7%
CCCCCCCCN(C)C(=O)Cn1cc(Cc2cnc(=O)n(CC)c2)c(=O)nc1SCc1ccc(F)cc1 | 7.70 | –
CCCCCCCCN(C)C(=O)Cn1cc(Cc2cnc(OC)nc2)c(=O)nc1SCc1ccc(F)cc1 | 8.40 | –
CCCCCCCCN(C)C(=O)Cn1cc(Cc2cnc(OCc3ccccc3)nc2)c(=O)nc1SCc1ccc(F)cc1 | 8.15 | –
CCCCCCCCN(C)C(=O)Cn1cc(Cc2cnc(OCC)nc2)c(=O)nc1SCc1ccc(F)cc1 | 8.52 | –
CCCCCCCCN(C)C(=O)Cn1cc(Cc2cncnc2)c(=O)nc1SCc1ccc(F)cc1 | 7.82 | –

The remaining compounds from weak to strong by pIC50 [1], led by results:

pIC50 [1] | Compound | other results
8.70 | CCCCCCCCN(C)C(=O)Cn1cc(Cc2cnc(=O)n(CC(=O)N3CCNC(=O)C3)c2)c(=O)nc1SCc1ccc(F)cc1 | –
9.00 | CCCCCCCCCCCCN(C)C(=O)Cn1cc(Cc2cnc(=O)n(CCO)c2)c(=O)nc1SCc1ccc(F)cc1 | –
9.00 | CCCCCCCCCCCCN(C)C(=O)Cn1cc(Cc2cnc(OC)nc2)c(=O)nc1SCc1ccc(F)cc1 | –
9.00 | CCCCCCCCCCCCN(C)C(=O)Cn1cc(Cc2cnc(=O)n(CC(=O)O)c2)c(=O)nc1SCc1ccc(F)cc1 | Activity (Rattus norvegicus [2]): 37%; Activity (Rattus norvegicus [3]): 85%; clearance [4]: 76 mL/min/kg; inhibition [5]: 83%
9.05 | CCCCCCCCCCCCN(C)C(=O)Cn1cc(Cc2cnc(O)nc2)c(=O)nc1SCc1ccc(F)cc1 | –
9.15 | CCCCCCCCCCCCN(C)C(=O)Cn1cc(Cc2cnc(=O)n(CC(=O)N3CCOCC3)c2)c(=O)nc1SCc1ccc(F)cc1 | Activity (Rattus norvegicus [2]): <7%; inhibition at 0.1 µM (Homo sapiens): 80%
9.22 | CCCCCCCCCCCCN(C)C(=O)Cn1cc(Cc2cnc(=O)n(CC(=O)NCCO)c2)c(=O)nc1SCc1ccc(F)cc1 | inhibition at 0.1 µM (Homo sapiens): 79%
9.40 | CCCCCCCCCCCCN(C)C(=O)Cn1cc(Cc2cnc(=O)n(CC(=O)NC)c2)c(=O)nc1SCc1ccc(F)cc1 | inhibition at 0.1 µM (Homo sapiens): 80%
9.40 | CCCCCCCCCCCCN(C)C(=O)Cn1cc(Cc2cnc(=O)n(CC(=O)N3CCNC(=O)C3)c2)c(=O)nc1SCc1ccc(F)cc1 | –
